Measurements as given in patent US12544374B2, “AZA-quinoline compounds and uses thereof” (Novartis AG, priority 2019, dated 2026).
Read-outs that look alike come from different tables or passages of the source.

Assays:
[1] = system: B cell lymphoma cell KARPAS422; experiment: Analysis of cell proliferation, KARPAS422; assay type: cell-based, human; conditions: KARPAS422 after 14 days of treatment, read-out: antiproliferative activities IC50
Description: B cell lymphoma cell KARPAS422 was cultured using standard cell culture conditions in RPMI-1640 (Invitrogen, cat #11875) supplemented with 15% FBS (Invitrogen, cat #10099-141) in humidified incubator at 37° C., 5% CO2. To assess the effect of PRC2 inhibition on cell proliferation, exponentially growing cells were seeded at a density of 1×10^5 cells/mL in 12-well plate (Corning, cat #CLS3513). After cell seeding, a compound of the invention was added to the cell media (in concentrations ranging from 0 to 100 μM, 3× dilution series). Viable cell numbers were determined every 3-4 days for up to 14 days using Vi-CELL (Beckman Coulter). On days of cell counting, fresh growth media and compound were replenished and cells split back to a density of 1×10^5 cells/mL. Total cell number is expressed as split-adjusted viable cells per mL. The dose response curves and IC50 values were generated using Prism.

[2] = target: wild type PRC2 (wtPRC2) complex (Homo sapiens (Human), UniProt Q15910); experiment: EZH2 LC-MS assay (LC-Qualified); assay type: biochemical; conditions: (a) LC-Qualified assay
Sequence of wild type PRC2 (wtPRC2) complex (Q15910 whole entry): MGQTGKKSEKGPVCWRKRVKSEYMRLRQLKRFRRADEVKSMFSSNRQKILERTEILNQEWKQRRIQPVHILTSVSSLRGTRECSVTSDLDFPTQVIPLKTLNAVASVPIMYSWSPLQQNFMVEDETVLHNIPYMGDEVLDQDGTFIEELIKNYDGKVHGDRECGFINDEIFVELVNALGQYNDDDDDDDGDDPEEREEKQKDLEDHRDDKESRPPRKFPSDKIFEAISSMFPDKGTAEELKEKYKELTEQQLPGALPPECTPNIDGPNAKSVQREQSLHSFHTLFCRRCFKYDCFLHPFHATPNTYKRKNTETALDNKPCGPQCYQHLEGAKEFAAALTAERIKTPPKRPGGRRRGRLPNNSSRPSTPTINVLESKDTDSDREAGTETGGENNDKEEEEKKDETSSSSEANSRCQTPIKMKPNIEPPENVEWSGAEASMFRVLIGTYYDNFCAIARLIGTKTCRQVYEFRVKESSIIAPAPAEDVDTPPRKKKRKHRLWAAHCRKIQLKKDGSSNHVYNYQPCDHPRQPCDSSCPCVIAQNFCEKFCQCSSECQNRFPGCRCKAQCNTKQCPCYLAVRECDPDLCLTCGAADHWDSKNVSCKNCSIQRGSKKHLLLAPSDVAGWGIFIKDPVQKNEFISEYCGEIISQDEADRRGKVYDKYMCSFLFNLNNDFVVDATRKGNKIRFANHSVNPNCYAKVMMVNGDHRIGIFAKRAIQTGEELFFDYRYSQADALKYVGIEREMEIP
Sequence of wild type PRC2 (wtPRC2) complex (Q15022 whole entry partner): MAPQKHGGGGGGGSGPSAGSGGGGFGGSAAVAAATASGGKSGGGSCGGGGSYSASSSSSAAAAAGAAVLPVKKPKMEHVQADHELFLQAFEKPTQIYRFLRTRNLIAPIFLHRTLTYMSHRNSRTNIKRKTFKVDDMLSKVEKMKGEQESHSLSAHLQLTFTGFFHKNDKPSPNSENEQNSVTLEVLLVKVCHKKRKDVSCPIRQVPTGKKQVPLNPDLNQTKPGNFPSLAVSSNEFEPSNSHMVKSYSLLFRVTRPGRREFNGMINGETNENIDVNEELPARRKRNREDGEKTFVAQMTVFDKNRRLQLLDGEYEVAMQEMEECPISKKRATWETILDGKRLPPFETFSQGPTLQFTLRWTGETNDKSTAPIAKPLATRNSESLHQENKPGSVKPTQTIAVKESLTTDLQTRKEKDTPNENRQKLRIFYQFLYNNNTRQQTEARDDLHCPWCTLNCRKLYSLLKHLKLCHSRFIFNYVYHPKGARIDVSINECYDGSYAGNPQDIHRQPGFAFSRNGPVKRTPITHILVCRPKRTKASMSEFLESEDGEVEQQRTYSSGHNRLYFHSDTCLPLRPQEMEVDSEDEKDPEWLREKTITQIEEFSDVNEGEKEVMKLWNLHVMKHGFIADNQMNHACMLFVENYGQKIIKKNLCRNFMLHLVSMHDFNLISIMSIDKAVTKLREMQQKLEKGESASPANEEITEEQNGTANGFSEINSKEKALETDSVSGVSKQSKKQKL
Sequence of wild type PRC2 (wtPRC2) complex (O75530 whole entry partner): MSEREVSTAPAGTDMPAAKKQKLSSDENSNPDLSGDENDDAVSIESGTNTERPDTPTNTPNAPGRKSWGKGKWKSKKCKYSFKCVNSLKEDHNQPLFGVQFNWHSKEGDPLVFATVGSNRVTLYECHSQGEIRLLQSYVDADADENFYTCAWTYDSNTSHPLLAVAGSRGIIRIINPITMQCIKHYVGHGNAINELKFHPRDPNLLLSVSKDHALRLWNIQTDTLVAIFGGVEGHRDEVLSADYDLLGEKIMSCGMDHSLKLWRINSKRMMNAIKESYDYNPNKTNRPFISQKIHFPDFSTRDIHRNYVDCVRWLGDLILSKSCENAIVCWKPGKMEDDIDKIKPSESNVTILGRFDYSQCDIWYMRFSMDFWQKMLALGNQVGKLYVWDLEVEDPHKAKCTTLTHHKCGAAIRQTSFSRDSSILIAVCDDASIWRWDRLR
Sequence of wild type PRC2 (wtPRC2) complex (Q09028 whole entry partner): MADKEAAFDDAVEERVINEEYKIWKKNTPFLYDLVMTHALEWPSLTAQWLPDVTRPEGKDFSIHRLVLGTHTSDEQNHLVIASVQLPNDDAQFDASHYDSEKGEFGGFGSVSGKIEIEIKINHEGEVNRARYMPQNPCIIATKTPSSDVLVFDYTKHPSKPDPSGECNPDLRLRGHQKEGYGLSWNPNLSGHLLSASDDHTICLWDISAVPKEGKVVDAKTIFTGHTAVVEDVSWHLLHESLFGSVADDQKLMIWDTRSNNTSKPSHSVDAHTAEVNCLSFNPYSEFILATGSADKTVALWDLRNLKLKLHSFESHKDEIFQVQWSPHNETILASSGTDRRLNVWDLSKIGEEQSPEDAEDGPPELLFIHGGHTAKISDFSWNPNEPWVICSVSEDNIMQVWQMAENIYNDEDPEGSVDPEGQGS
Sequence of wild type PRC2 (wtPRC2) complex (Q6ZN18 whole entry partner): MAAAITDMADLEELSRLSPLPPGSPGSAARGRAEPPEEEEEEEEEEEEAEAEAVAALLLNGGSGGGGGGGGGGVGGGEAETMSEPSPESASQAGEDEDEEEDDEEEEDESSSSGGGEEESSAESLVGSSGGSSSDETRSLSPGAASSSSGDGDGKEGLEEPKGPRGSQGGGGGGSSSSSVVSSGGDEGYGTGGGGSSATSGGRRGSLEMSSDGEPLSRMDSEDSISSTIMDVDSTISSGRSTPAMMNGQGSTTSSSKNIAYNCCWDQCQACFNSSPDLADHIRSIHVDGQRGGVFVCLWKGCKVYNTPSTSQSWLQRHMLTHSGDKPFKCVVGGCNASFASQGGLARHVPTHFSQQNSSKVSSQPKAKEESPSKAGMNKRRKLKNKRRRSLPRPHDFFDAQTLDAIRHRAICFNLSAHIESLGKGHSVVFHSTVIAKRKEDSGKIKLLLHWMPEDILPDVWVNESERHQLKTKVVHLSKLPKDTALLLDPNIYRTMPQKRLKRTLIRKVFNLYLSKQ
Description: Representative compounds of the invention were serially and separately diluted 3-fold in DMSO to obtain twelve concentrations. […] Solutions (6 μL) of 80 nM wild type PRC2 (wtPRC2) complex and 60 μM SAM in reaction buffer (20 mM Tris, pH 8.0, 0.1% BSA, 0.01% Triton, 0.5 mM DTT) were added to the wells that were then incubated with the test compound for 20 min. A 6 μL solution of 3 μM of the substrate peptide H3K27me1 (histone H3[21-44]-K27me1-biotin) and 6 μM regulatory peptide H3K27me3 (histone H3[21-44]-K27me3) in reaction buffer was added to initiate each reaction. […] The data were fit to a dose response equation using the program Helios to get the IC50 values of the test compound.

[3] = target: EZH2 (Homo sapiens (Human), UniProt Q15910); experiment: ELISA (H3K27 methylation) assay in G401 cell; assay type: cell-based; conditions: (b) ELISA Qualified assay, 48 h
Sequence of EZH2 (Q15910 whole entry): as the sequence (Q15910 whole entry) above
Sequence of EZH2 (Q15022 whole entry partner): as the sequence (Q15022 whole entry partner) above
Sequence of EZH2 (O75530 whole entry partner): as the sequence (O75530 whole entry partner) above
Sequence of EZH2 (Q09028 whole entry partner): as the sequence (Q09028 whole entry partner) above
Description: Representative compounds of the invention were serially and separately diluted 3-fold in DO to obtain a total of eight or twelve concentrations. Then the compounds were added to G401 cell cultured in 384-well plate at 1:500 dilution to obtain the highest concentration of 20 μM. The cells were further cultured for 48 h before ELISA procedure.
ELISA protocol: Cell lysates were transferred to the wells of a 384-well plate and the final volume was adjusted to 50 μL per well with PBS. The plate was sealed, centrifuged at 2,000 rpm for 2 min and incubated at 4° C. for about 16 h. The plate was washed with TBST buffer (1×TBS (10×TBS: 24.2 g Tris (Sigma, T6066), 80 g NaCl (Sigma, S3014) to 1 L of water and adjust pH to 7.6 with HCl) with 0.1% Tween-20). Blocking buffer (TBST, 5% BSA; 50 μL per well) was added and the plate was incubated for 1 h at rt. The blocking buffer was removed and primary antibody was added (30 μL per well). […] The primary antibody was incubated in the plate at rt for 1 h. The wells were washed with TBST and incubated with secondary antibody for 1 h at rt.
After 1 h of incubation at rt, the wells were washed with TBST. […] The signal was read using a PerkinElmer Envision Reader. The H3K27 methylation readouts were normalized using H3 signal and then percentage inhibition was calculated against the samples treated with DO. The data were fit to a dose response curve using the program Helios to get the IC50 values of the test compound.

[4] = Homo sapiens, KARPAS-422, 336 h

Row | SMILES | IC50 [1, 4] [nM] | IC50 [2] [µM] | IC50 [3] [µM] | IC50 [1] [nM]
1 | OCC1COC(c2cnc(NC[C@H]3CC[C@H](Nc4ccc5ccnc(Cl)c5n4)CC3)nc2)OC1 (mixture of isomers) [Compound C34, (2-(2-((((1,4-trans)-4-((8-chloro-1,7-naphthyridin-2-yl)amino)cyclohexyl)methyl)amino)pyrimidin-5-yl)-1,3-dioxan-5-yl)methanol] | 18 | 0.028 | 0.038 | –
2 | COc1nccc2ccc(N[C@H]3CC[C@H](CNc4ncc(NC(C)=O)cn4)CC3)nc12 [Compound C6, N-(2-((((1,4-trans)-4-((8-methoxy-1,7-naphthyridin-2-yl)amino)cyclohexyl)methyl)amino)pyrimidin-5-yl)acetamide] | 69 | 0.101 | 0.066 | –
3 | COc1nccc2ccc(N[C@H]3CC[C@H](CNc4ncc(C(=O)N5CCNCC5)cn4)CC3)nc12 [Compound C8, (2-((((1,4-trans)-4-((8-methoxy-1,7-naphthyridin-2-yl)amino)cyclohexyl)methyl)amino)pyrimidin-5-yl)(piperazin-1-yl)methanone] | 72 | 0.07 | 0.077 | –
4 | COC(=O)Nc1cnc(NC[C@H]2CC[C@H](Nc3ccc4ccnc(Cl)c4n3)CC2)nc1 [Compound C15, Methyl (2-((((1,4-trans)-4-((8-chloro-1,7-naphthyridin-2-yl)amino)cyclohexyl)methyl)amino)pyrimidin-5-yl)carbamate] | 31 | 0.017 | 0.028 | –
5 | Clc1nccc2ccc(N[C@H]3CC[C@H](CNc4ncc(CNC5COC5)cn4)CC3)nc12 [Compound C27, 8-chloro-N-((1,4-trans)-4-(((5-((oxetan-3-ylamino)methyl)pyrimidin-2-yl)amino)methyl)cyclohexyl)-1,7-naphthyridin-2-amine] | 8 | 0.027 | 0.019 | –
6 | CN(C(=O)Cc1cnc(NC[C@H]2CC[C@H](Nc3ccc4ccnc(Cl)c4n3)CC2)nc1)C1COC1 [Compound C37, 2-(2-((((1,4-trans)-4-((8-chloro-1,7-naphthyridin-2-yl)amino)cyclohexyl)methyl)amino)pyrimidin-5-yl)-N-methyl-N-(oxetan-3-yl)acetamide] | 0.7 | 0.015 | 0.002 | –
7 | O=C(Cc1ccc(NC[C@H]2CC[C@H](Nc3ccc4ccnc(Cl)c4n3)CC2)nc1)NC1COC1 [Compound C42, 2-(6-((((1,4-trans)-4-((8-chloro-1,7-naphthyridin-2-yl)amino)cyclohexyl)methyl)amino)pyridin-3-yl)-N-(oxetan-3-yl)acetamide] | 2 | 0.018 | 0.007 | –
8 | O=C(Cc1cnc(NC[C@H]2CC[C@H](Nc3ccc4ccnc(Cl)c4n3)CC2)nc1)N(CCO)C1COC1 [Compound C51, 2-(2-((((1,4-trans)-4-((8-chloro-1,7-naphthyridin-2-yl)amino)cyclohexyl)methyl)amino)pyrimidin-5-yl)-N-(2-hydroxyethyl)-N-(oxetan-3-yl)acetamide] | 8 | 0.038 | 0.018 | –
9 | O=C(NC1COC1)C(CO)c1cnc(NC[C@H]2CC[C@H](Nc3ccc4ccnc(Cl)c4n3)CC2)nc1 (stereo partly drawn) [Compound C72, 2-(2-((((1,4-trans)-4-((8-chloro-1,7-naphthyridin-2-yl)amino)cyclohexyl)methyl)amino)pyrimidin-5-yl)-3-hydroxy-N-(oxetan-3-yl)propanamide] | – | 0.049 | 0.056 | –
10 | O=C(NC1COC1)[C@H](O)c1cnc(NC[C@H]2CC[C@H](Nc3ccc4ccnc(Cl)c4n3)CC2)nc1 [Compound C76, (R)-2-(2-((((1,4-trans)-4-((8-chloro-1,7-naphthyridin-2-yl)amino)cyclohexyl)methyl)amino)pyrimidin-5-yl)-2-hydroxy-N-(oxetan-3-yl)acetamide] | 1 | – | – | –

The remaining lines, values ahead:

Row | IC50 [1, 4] [nM] | IC50 [2] [µM] | IC50 [3] [µM] | IC50 [1] [nM] | SMILES
11 | – | – | – | 0.3 | C[C@H](C(=O)NC1COC1)c1cnc(NC[C@H]2CC[C@H](Nc3ccc4ccnc(Cl)c4n3)CC2)nc1 (relative stereo) [Compound C53, (S)-2-(2-((((1,4-trans)-4-((8-chloro-1,7-naphthyridin-2-yl)amino)cyclohexyl)methyl)amino)pyrimidin-5-yl)-N-(oxetan-3-yl)propanamide]
12 | 20 | 0.121 | 0.042 | – | COc1nccc2ccc(N[C@H]3CC[C@H](CNc4ncc(N)cn4)CC3)nc12 [Compound C1, N^2-(((1,4-trans)-4-((8-methoxy-1,7-naphthyridin-2-yl)amino)cyclohexyl)methyl)pyrimidine-2,5-diamine]
13 | 2 | 0.031 | 0.005 | – | CC1(NCc2cnc(NC[C@H]3CC[C@H](Nc4ccc5ccnc(Cl)c5n4)CC3)nc2)COC1 [Compound C28, 8-chloro-N-((1,4-trans)-4-(((5-(((3-methyloxetan-3-yl)amino)methyl)pyrimidin-2-yl)amino)methyl)cyclohexyl)-1,7-naphthyridin-2-amine]
14 | 3 | 0.009 | 0.011 | – | O=C(Cc1cnc(NC[C@H]2CC[C@H](Nc3ccc4ccnc(Cl)c4n3)CC2)nc1)NC1COC1 [Compound C36, 2-(2-((((1,4-trans)-4-((8-chloro-1,7-naphthyridin-2-yl)amino)cyclohexyl)methyl)amino)pyrimidin-5-yl)-N-(oxetan-3-yl)acetamide]
15 | 0.5 | 0.008 | 0.002 | – | N#CCCN(C(=O)Cc1cnc(NC[C@H]2CC[C@H](Nc3ccc4ccnc(Cl)c4n3)CC2)nc1)C1COC1 [Compound C49, 2-(2-((((1,4-trans)-4-((8-chloro-1,7-naphthyridin-2-yl)amino)cyclohexyl)methyl)amino)pyrimidin-5-yl)-N-(2-cyanoethyl)-N-(oxetan-3-yl)acetamide]
16 | 41 | 0.049 | 0.032 | – | CNc1nccc2ccc(N[C@H]3CC[C@H](CNc4ncc(C(N)=O)cn4)CC3)nc12 [Compound C61, 2-((((1,4-trans)-4-((8-(methylamino)-1,7-naphthyridin-2-yl)amino)cyclohexyl)methyl)amino)pyrimidine-5-carboxamide]
17 | 2 | – | – | – | C[C@@H](C(=O)N1CC(O)C1)c1cnc(NC[C@H]2CC[C@H](Nc3ccc4ccnc(Cl)c4n3)CC2)nc1 [Compound C71, (R)-2-(2-((((1,4-trans)-4-((8-chloro-1,7-naphthyridin-2-yl)amino)cyclohexyl)methyl)amino)pyrimidin-5-yl)-1-(3-hydroxyazetidin-1-yl)propan-1-one]
18 | 2 | 0.012 | 0.025 | – | O=C(NC1COC1)C(F)(F)c1cnc(NC[C@H]2CC[C@H](Nc3ccc4ccnc(Cl)c4n3)CC2)nc1 [Compound C77, 2-(2-((((1,4-trans)-4-((8-chloro-1,7-naphthyridin-2-yl)amino)cyclohexyl)methyl)amino)pyrimidin-5-yl)-2,2-difluoro-N-(oxetan-3-yl)acetamide]
